Measured values reported in patent US6303630A, “Diarylsulfone non-nucleoside reverse transcriptase inhibitors of human immunodeficiency virus” (University of the Sciences in Philadelphia, priority 2000, dated 2001).
pEC50, pIC50: −log10 of the molar value.

Key:
[1] = system: HIV-1; assay: NCI in vitro anti-HIV drug screen: XTT-formazan assay, protection of T4 lymphocytes (CEM) from HIV-1 cytopathic effects; format: cell-based, human immunodeficiency virus (HIV-1); conditions: for pEC50 / inhibition at 200 µM / inhibition at 20 µM / inhibition at 2 µM / inhibition at 0.2 µM / inhibition at 63.2 µM / inhibition at 6.33 µM / inhibition at 0.634 µM / inhibition at 0.0635 µM: Human immunodeficiency virus 1, CCRF-CEM; for pEC50: 144 h, HIV-1 infected CEM cells, 6 days, XTT, approximate values, read-out: EC50 (50% effective concentration against HIV cytopathic effects); for inhibition at 200 µM / activity at 200 µM: dose 2.00 × 10^-4 Molar; for inhibition at 200 µM / inhibition at 20 µM / inhibition at 2 µM / inhibition at 0.2 µM / inhibition at 63.2 µM / inhibition at 6.33 µM / inhibition at 0.634 µM / inhibition at 0.0635 µM: read-out: Percent of Protection; for inhibition at 20 µM / activity at 20 µM: dose 2.00 × 10^-5 Molar; for inhibition at 2 µM / activity at 2 µM: dose 2.00 × 10^-6 Molar; for inhibition at 0.2 µM / activity at 0.2 µM: dose 2.00 × 10^-7 Molar; for inhibition at 63.2 µM / activity at 63.2 µM: dose 6.32 × 10^-5 Molar; for inhibition at 6.33 µM / activity at 6.33 µM: dose 6.33 × 10^-6 Molar; for inhibition at 0.634 µM / activity at 0.634 µM: dose 6.34 × 10^-7 Molar; for inhibition at 0.0635 µM / activity at 0.0635 µM: dose 6.35 × 10^-8 Molar; for activity at 200 µM / activity at 20 µM / activity at 2 µM / activity at 0.2 µM / activity at 63.2 µM / activity at 6.33 µM / activity at 0.634 µM / activity at 0.0635 µM: Human immunodeficiency virus 1, Lymphocyte, read-out: Percent of Control, Infected; for TI50 (IC/EC), Therapeutic Index: IC50/EC50
Procedure: Compounds of the present invention were evaluated for anti-HIV efficacy by the National Cancer Institute's (NCI) In Vitro Anti AIDS Drug Discovery Program.
(§1) The NCI procedure is fully described, for example, in a bulletin provided by the National Institutes of Health, National Cancer Institute, Bethesda, Md. 20892, all of which is incorporated herein by reference. As related in the NCI bulletin, the procedure is based on O. W. Weislow et al., "New soluble-formazan assay for HIV-1 cytopathic effects: application to high flux screening of synthetic and natural products for AIDS-antiviral activity", J. Natl. Cancer Inst. 81:577-586 (1989), and is used to test for compounds active against human immunodeficiency virus (HIV), and is designed to detect compounds active at any stage of the virus reproductive cycle. As further related in the NCI bulletin, the assay includes killing of T4 lymphocytes by HIV. Amounts of HIV are added to cells, with a minimum of two cycles of virus reproduction found to be necessary to obtain the required cell killing. Compounds that interact with virions, cells, or virus gene-products to interfere with viral activities will protect cells from cytolysis. All were compared with a positive (e.g., AZT-treated) control evaluation at the same time under identical conditions. The procedure is set forth as follows:
(§2) A candidate compound is first dissolved in a suitable solvent, preferably dimethyl sulfoxide, then diluted 1:100 in cell culture medium before preparing serial half-log10 dilutions. T4 lymphocytes (CEM cell line) are then added and after a brief interval HIV-1 is added, resulting in a 1:200 final dilution of the compound. Uninfected cells with the compound serve as a toxicity control, and infected and uninfected without the compound serve as basic controls. Cultures are then incubated at 37° in a 5% carbon dioxide atmosphere for 6 days. The tetrazolium salt, XTT, is added to all wells, and cultures are incubated to allow formazan color development by viable cells. Individual wells are analyzed spectrophotometrically to quantitate formazan product, and in addition are viewed microscopically for detection of viable cells and confirmation of protective activity. Drug-treated virus-infected cells are compared with drug-treated noninfected cells and with other appropriate controls (untreated infected and untreated noninfected cells, drug-containing wells without cells, etc.) on the same plate. Data are reviewed in comparison with other tests performed at the same time and a determination as to activity is made.

[2] = system: T4 lymphocytes (CEM cell line); assay: Cell growth / toxicity control in uninfected T4 lymphocytes (CEM), XTT-formazan; format: cell-based; conditions: Homo sapiens, CCRF-CEM; for pIC50: 144 h, uninfected CEM cells, 6 days, XTT, approximate values, read-out: IC50 (50% inhibitory concentration for cell growth); for activity at 200 µM: dose 2.00 × 10^-4 Molar; for activity at 200 µM / activity at 20 µM / activity at 2 µM / activity at 0.2 µM / activity at 63.2 µM / activity at 6.33 µM / activity at 0.634 µM / activity at 0.0635 µM: read-out: Percent of Control, Uninfected; for activity at 20 µM: dose 2.00 × 10^-5 Molar; for activity at 2 µM: dose 2.00 × 10^-6 Molar; for activity at 0.2 µM: dose 2.00 × 10^-7 Molar; for activity at 63.2 µM: dose 6.32 × 10^-5 Molar; for activity at 6.33 µM: dose 6.33 × 10^-6 Molar; for activity at 0.634 µM: dose 6.34 × 10^-7 Molar; for activity at 0.0635 µM: dose 6.35 × 10^-8 Molar
Source text: as §1, §2

| SMILES | pEC50 [1] | inhibition at 200 µM [1] [%] | inhibition at 20 µM [1] [%] | inhibition at 2 µM [1] [%] | inhibition at 0.2 µM [1] [%] | inhibition at 63.2 µM [1] [%] | inhibition at 6.33 µM [1] [%] | inhibition at 0.634 µM [1] [%] | inhibition at 0.0635 µM [1] [%] | activity at 200 µM [1] [%] | activity at 20 µM [1] [%] | activity at 2 µM [1] [%] | activity at 0.2 µM [1] [%] | activity at 63.2 µM [1] [%] | activity at 6.33 µM [1] [%] | activity at 0.634 µM [1] [%] | activity at 0.0635 µM [1] [%] | TI50 (IC/EC), Therapeutic Index [1] | pIC50 [2] | activity at 200 µM [2] [%] | also measured |
| --- | --- | --- | --- | --- | --- | --- | --- | --- | --- | --- | --- | --- | --- | --- | --- | --- | --- | --- | --- | --- | --- |
| CNc1ccccc1S(=O)(=O)c1ccccc1Cl [Compound 82, 2-(2-CHLOROPHENYSULFONYL)-N-METHYLANILINE] | 4.53 | 3.76 | 41.4 | -5.07 | -22.6 | 68.1 | 24.5 | -8.87 | 23.7 | 34.6 | 60.1 | 28.6 | 16.6 | 78.3 | 48.6 | 26 | 48.1 | 4.93 × 10^0 | 3.84 | 33.9 | activity at 20 µM [2]: 78.2%; activity at 2 µM [2]: 91.2%; activity at 0.2 µM [2]: 60.8%; activity at 63.2 µM [2]: 93.3%; activity at 6.33 µM [2]: 84.2%; activity at 0.634 µM [2]: 96.1%; activity at 0.0635 µM [2]: 93.2% |
| O=[N+]([O-])c1ccccc1S(=O)(=O)c1cccc2c1NCCC2 [Compound 46, 8-(2-nitrophenylsulfonyl)-1,2,3,4-tetrahydroquinoline] | 5.88 | -0.28 | 76.4 | 69.4 | 6.11 | 33.6 | 89.1 | 16.3 | -1.64 | 1.73 | 76.8 | 70 | 7.99 | 35 | 89.3 | 17.9 | 0.39 | 3.78 × 10^+1 | 4.30 | 1.77 | activity at 20 µM [2]: 95.8%; activity at 2 µM [2]: 95.4%; activity at 0.2 µM [2]: 98.9%; activity at 63.2 µM [2]: 38.1%; activity at 6.33 µM [2]: 94%; activity at 0.634 µM [2]: 100%; activity at 0.0635 µM [2]: 98.9% |
